Experiments:
[1] = molecular target: T1, 5-hydroxytryptamine receptor 1A (Homo sapiens, UniProt P08908)
T1 sequence (P08908 whole entry): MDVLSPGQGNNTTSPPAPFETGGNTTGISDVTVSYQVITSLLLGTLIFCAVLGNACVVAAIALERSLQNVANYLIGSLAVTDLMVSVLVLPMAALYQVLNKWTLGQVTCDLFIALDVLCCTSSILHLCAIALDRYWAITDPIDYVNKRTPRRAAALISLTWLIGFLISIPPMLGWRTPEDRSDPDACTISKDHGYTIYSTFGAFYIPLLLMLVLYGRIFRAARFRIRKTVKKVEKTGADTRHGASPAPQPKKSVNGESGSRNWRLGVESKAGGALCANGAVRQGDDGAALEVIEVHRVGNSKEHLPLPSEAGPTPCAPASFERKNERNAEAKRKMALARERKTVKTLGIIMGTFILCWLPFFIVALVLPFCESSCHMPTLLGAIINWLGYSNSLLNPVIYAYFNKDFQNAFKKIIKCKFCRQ

[2] = molecular target: 3',5'-cyclic-AMP phosphodiesterase 4A (Homo sapiens, UniProt P27815); format: functional
Chain of 3',5'-cyclic-AMP phosphodiesterase 4A (P27815 whole entry): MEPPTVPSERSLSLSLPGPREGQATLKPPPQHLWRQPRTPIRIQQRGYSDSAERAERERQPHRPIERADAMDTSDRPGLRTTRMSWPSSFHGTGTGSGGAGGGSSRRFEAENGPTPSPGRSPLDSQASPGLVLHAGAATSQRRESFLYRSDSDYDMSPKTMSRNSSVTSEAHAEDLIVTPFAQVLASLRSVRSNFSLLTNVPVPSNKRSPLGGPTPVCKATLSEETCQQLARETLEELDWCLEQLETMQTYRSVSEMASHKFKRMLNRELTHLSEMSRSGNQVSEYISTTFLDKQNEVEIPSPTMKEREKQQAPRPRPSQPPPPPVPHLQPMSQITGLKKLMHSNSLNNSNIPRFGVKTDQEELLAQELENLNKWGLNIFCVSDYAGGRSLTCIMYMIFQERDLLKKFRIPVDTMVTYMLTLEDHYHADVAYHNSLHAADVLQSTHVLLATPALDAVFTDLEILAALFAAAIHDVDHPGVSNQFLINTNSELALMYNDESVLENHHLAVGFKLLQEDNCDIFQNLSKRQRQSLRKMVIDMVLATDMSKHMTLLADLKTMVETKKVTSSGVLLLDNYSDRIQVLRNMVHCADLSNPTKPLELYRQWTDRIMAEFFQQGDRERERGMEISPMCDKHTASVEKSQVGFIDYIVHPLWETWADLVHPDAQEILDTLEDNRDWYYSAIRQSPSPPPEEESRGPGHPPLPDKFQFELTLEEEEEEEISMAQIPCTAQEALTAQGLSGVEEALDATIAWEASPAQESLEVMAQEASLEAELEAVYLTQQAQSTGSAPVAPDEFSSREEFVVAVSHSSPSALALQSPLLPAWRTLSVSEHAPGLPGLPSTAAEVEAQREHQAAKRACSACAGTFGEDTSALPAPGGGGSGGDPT

[3] = molecular target: T2, Amine oxidase [flavin-containing] A (Homo sapiens, UniProt P21397); format: functional
T2 sequence (P21397 whole entry): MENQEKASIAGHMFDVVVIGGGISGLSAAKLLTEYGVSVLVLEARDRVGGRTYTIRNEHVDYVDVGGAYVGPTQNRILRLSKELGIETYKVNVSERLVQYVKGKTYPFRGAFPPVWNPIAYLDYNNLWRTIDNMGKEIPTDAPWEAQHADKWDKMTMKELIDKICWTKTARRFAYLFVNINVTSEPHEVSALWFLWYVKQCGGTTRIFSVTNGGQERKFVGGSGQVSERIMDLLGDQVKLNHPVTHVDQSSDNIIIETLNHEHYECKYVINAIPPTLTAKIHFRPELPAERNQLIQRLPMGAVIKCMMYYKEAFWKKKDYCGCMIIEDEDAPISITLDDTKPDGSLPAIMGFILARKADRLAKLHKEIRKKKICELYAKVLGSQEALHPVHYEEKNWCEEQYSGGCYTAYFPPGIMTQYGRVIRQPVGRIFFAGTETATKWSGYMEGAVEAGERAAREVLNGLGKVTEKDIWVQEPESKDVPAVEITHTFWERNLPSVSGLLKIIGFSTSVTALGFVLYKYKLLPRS

[4] = molecular target: cGMP-inhibited 3',5'-cyclic phosphodiesterase 3A (Homo sapiens, UniProt Q14432); format: functional
Chain of cGMP-inhibited 3',5'-cyclic phosphodiesterase 3A (Q14432 whole entry): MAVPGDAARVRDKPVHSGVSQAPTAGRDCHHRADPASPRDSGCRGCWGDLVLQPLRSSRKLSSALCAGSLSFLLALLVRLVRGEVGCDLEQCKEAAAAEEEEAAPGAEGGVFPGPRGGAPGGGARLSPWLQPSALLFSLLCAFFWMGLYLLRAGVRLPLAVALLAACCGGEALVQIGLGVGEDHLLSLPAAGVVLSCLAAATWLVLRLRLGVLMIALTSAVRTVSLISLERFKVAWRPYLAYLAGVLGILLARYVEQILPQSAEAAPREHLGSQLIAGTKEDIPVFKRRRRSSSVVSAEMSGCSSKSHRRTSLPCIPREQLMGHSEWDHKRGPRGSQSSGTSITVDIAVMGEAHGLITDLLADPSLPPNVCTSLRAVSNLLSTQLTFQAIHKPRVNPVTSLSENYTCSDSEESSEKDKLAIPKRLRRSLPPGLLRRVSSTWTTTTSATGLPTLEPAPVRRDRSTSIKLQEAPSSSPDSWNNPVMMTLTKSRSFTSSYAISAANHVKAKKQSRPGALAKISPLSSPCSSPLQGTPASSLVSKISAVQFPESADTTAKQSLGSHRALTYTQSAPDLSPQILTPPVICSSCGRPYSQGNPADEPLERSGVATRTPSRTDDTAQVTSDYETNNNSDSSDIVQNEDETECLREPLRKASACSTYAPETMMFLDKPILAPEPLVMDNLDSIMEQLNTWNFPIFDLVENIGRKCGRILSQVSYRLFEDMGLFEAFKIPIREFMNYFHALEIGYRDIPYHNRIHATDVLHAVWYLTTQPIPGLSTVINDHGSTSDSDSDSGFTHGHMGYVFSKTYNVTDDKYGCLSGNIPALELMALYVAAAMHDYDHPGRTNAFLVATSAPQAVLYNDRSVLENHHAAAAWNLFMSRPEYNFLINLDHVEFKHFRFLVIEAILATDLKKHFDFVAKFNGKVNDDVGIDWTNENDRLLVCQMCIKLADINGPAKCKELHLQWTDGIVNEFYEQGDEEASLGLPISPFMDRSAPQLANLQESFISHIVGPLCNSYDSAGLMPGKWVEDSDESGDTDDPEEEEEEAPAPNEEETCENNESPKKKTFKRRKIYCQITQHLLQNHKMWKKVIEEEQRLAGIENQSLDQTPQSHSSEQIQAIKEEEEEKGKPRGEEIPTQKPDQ

[5] = molecular target: Sodium-dependent noradrenaline transporter (Homo sapiens, UniProt P23975)
Chain of Sodium-dependent noradrenaline transporter (P23975 whole entry): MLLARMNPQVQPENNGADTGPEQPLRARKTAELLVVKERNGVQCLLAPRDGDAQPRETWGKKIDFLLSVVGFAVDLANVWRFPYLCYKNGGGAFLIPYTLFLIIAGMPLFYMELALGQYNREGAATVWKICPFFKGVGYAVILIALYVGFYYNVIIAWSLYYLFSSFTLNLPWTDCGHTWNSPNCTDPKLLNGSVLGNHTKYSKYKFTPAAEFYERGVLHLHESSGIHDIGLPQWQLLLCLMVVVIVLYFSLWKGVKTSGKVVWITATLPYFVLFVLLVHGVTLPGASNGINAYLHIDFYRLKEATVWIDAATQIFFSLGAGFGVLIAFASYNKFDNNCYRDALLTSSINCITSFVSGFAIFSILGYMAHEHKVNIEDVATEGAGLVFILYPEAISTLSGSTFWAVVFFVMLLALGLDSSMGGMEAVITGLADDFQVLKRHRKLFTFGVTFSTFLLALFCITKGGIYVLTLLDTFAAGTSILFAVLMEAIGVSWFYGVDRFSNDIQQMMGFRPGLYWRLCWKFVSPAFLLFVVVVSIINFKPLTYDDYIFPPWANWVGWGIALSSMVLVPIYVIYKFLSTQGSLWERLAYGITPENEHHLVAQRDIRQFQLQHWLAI

[6] = molecular target: T3, Alpha-1A adrenergic receptor (Homo sapiens, UniProt P35348); format: functional, cell-based
T3 sequence (P35348 whole entry): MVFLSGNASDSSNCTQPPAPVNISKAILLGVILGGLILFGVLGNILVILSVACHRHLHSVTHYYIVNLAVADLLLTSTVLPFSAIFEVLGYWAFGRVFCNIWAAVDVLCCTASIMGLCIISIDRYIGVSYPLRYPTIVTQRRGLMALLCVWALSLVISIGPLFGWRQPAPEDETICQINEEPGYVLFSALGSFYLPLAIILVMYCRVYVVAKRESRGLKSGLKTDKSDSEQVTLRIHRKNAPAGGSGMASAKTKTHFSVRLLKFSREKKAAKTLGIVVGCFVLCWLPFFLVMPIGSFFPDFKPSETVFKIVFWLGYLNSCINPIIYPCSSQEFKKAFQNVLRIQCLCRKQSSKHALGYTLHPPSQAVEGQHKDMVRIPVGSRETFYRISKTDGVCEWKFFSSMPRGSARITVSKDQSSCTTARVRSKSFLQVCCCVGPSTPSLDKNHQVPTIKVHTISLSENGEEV

[7] = molecular target: T4, Alpha-2A adrenergic receptor (Homo sapiens, UniProt P08913)
T4 sequence (P08913 whole entry): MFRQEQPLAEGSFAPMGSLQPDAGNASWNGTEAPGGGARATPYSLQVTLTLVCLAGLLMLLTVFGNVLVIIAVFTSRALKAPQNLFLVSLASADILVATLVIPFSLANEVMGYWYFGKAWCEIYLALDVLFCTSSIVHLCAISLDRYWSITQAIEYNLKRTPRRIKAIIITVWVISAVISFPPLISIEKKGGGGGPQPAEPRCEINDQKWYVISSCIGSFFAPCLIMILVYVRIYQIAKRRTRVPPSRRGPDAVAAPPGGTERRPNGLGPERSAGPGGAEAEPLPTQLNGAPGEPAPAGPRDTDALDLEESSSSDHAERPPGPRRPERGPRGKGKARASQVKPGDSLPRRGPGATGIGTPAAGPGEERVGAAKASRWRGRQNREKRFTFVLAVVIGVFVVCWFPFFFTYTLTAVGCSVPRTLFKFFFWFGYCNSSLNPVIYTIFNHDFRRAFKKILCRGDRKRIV
Further: assay procedure not described here.

Row | Compound | AC50 [1] [µM] | AC50 [2] [µM] | AC50 [3] [µM] | AC50 [4] [µM] | AC50 [5] [µM] | AC50 [6] [µM] | AC50 [7] [µM]
1 | C[C@@H]1O[C@@H](OC[C@H]2O[C@@H](Oc3c(-c4ccc(OCCO)c(OCCO)c4)oc4cc(OCCO)cc(O)c4c3=O)[C@H](O)[C@@H](O)[C@@H]2O)[C@H](O)[C@H](O)[C@H]1O [TROXERUTIN] | > 30 | > 30 | > 30 | > 30 | > 30 | > 30 | > 30
2 | CCC1(c2cccc(O)c2)CCCCN(C)C1 (stereo unspecified) [MEPTAZINOL] | > 30 | > 30 | > 30 | > 30 | > 30 | > 30 | > 30
3 | CC[C@@H]1/C=C(\C)C[C@H](C)C[C@H](OC)[C@H]2O[C@@](O)(C(=O)C(=O)N3CCCC[C@H]3C(=O)O[C@H](/C(C)=C/[C@@H]3CC[C@H](Cl)[C@H](OC)C3)[C@H](C)[C@@H](O)CC1=O)[C@H](C)C[C@@H]2OC [PIMECROLIMUS] | > 30 | > 30 | > 30 | > 3 | > 30 | > 30 | > 30
4 | CC(C(=O)O)c1ccc2c(c1)Cc1cccnc1O2 (stereo unspecified) [PRANOPROFEN] | > 30 | > 30 | > 30 | > 30 | > 30 | > 30 | > 30
5 | O=C(O)c1cccc(-c2noc(-c3ccccc3F)n2)c1 | > 30 | > 30 | > 30 | > 30 | > 30 | > 30 | > 30
6 | CCCCN(CCCC)CCCOC(=O)c1ccc(N)cc1 [BUTACAINE] | 2.97 | > 30 | > 30 | > 30 | > 30 | > 30 | > 30
7 | NS(=O)(=O)c1cc2c(cc1Cl)NC(CC1CCCC1)NS2(=O)=O (stereo unspecified) [CYCLOPENTHIAZIDE] | > 30 | > 30 | > 30 | > 30 | > 30 |  | > 30
8 | CO/N=C(\C(=O)N[C@@H]1C(=O)N2C(C(=O)OCOC(=O)C(C)(C)C)=C(C)CS[C@H]12)c1csc(N)n1 | > 30 | > 30 | > 30 | > 30 | > 30 |  | > 30
9 | CC(=O)O[C@]1(C(C)=O)CC[C@H]2[C@@H]3C[C@H](C)C4=CC(=O)CC[C@]4(C)[C@H]3CC[C@@]21C [MEDROXYPROGESTERONE ACETATE] | > 30 | > 30 | > 30 | > 30 | > 30 | > 30 | > 30
10 | CO[C@@]12[C@H](COC(N)=O)C3=C(C(=O)C(C)=C(N)C3=O)N1C[C@@H]1N[C@@H]12 [MITOMYCIN] | > 30 | > 30 | > 30 | > 30 | > 30 | > 30 | > 30
11 | Cc1c(O)cccc1C(=O)N[C@@H](CSc1ccccc1)[C@H](O)CN1C[C@H]2CCCC[C@H]2C[C@H]1C(=O)NC(C)(C)C | > 30 | > 30 | > 30 | > 30 | 18.2 | > 30 | > 30
12 | Oc1cccc2cccnc12 [OXYQUINOLINE] | > 30 | > 30 | > 30 | > 30 | > 30 | > 30 | > 30
13 | CCCC1C(=O)N2C(N(C)C)=Nc3ccc(C)cc3N2C1=O (stereo unspecified) [APAZONE] | > 30 | > 30 | > 30 | > 30 | > 30 | > 30 | > 30
14 | C[C@@H]1C[C@H]2[C@@H]3CCC4=CC(=O)C=C[C@]4(C)[C@@]3(F)[C@@H](O)C[C@]2(C)[C@H]1C(=O)CO [DESOXIMETASONE] | > 30 | > 30 | > 30 | > 30 | > 30 | > 30 | > 30

— ChEMBL document CHEMBL5291721, “A preclinical secondary pharmacology resource illuminates target-adverse drug reaction associations of marketed drugs” (Nat Commun, 2023)
